The source of these data is ChEMBL document CHEMBL5325507, “A TNF-α blocking peptide that reduces NF-κB and MAPK activity for attenuating inflammation” (Bioorg Med Chem, 2023).

Data set [1] deals with L929. Put plainly: Cytotoxicity against TNF-alpha induced mouse L929 cells assessed as increase in cell survival pretreated for 12 hrs followed by TNF-alpha induction and measured after 20 hrs by MTT assay. Type of data set: toxicity, cell-based. As to conditions: l929, 32 h. In general terms: Tetrazolium assays rely on reduction of a dye to a coloured formazan, in cell work by metabolically active cells.

Data set [2] addresses T1, Nuclear factor NF-kappa-B complex (Homo sapiens) (UniProt Q00653+P19838+Q04206). Put plainly: Inhibition of TNF-alpha induced NF-kappaB activation in HEK293-A cells incubated for 15 mins by Western blot analysis. Type of data set: cell-based. As to conditions: dose 15-120 µM. (Immunoblotting shows a protein as a band on a membrane.)
The target of data set [3] is Transcription factor p65 (Homo sapiens) (UniProt Q04206). Put plainly: Inhibition of TNF-alpha induced NF-kappaB p65 nuclear translocation in human HaCaT cells at 120 uM incubated for 10 mins DAPI staining based fluorescence microscopic analysis. Type of data set: cell-based.
The subject of data set [4] is HEK293-A. The experiment in a line: Inhibition of TNF-alpha induced MAPK activation in HEK293-A cells at 15 to 120 uM by Western blot analysis. Type of data set: cell-based. As to conditions: Homo sapiens, dose 15-120 µM, time 15.0 min, TDE = time-dependent effect.
For data set [5], the system named is HEK293-A. Put plainly: Inhibition of TNF-alpha induced MAPK activation in HEK293-A cells incubated for 15 mins by Western blot analysis. As to conditions: Homo sapiens, dose 15-120 µM. Type of data set: cell-based.
Data set [6] has as its system HT-29. Put plainly: Antiinflammatory activity in human HT-29 cells assessed as downregulation of TNF-alpha-induced IFN-gamma mRNA expression incubated for 6 hrs by RT-PCR analysis. The class given is functional, cell-based. As to conditions: dose 15-20 µM.
Data set [7] has as its target T1, Nuclear factor NF-kappa-B complex (Homo sapiens). The experiment in a line: Inhibition of TNF-alpha induced NF-kappaB activation in HEK293-A cells at 15 to 120 uM by Western blot analysis. Type of data set: cell-based. As to conditions: dose 15-120 µM, time 15.0 min, TDE = time-dependent effect.
Data set [8] deals with T2, Tumor necrosis factor receptor superfamily member 1B (Homo sapiens, UniProt P20333).
T2 sequence (P20333 whole entry): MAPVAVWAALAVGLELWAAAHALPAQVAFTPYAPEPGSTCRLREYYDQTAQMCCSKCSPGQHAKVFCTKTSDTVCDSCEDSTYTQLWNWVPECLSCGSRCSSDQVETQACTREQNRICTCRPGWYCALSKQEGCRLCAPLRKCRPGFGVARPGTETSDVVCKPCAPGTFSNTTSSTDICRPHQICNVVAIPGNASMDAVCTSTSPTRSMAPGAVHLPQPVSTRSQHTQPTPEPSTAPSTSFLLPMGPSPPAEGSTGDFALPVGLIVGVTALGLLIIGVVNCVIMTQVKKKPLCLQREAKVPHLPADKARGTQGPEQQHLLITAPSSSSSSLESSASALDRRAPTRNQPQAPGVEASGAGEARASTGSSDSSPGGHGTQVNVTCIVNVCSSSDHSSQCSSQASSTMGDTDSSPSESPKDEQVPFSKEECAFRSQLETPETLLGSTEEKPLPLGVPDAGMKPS
Put plainly: Competitive Inhibition of TNF-alpha binding to human recombinant TNFR2 incubated for 1 hr by ELISA analysis. For orientation: ELISA stands for enzyme-linked immunosorbent assay.

The subject of data set [9] is HT-29. The experiment in a line: Antiinflammatory activity in human HT-29 cells assessed as downregulation of TNF-alpha-induced IL-8 mRNA expression incubated for 6 hrs by RT-PCR analysis. The class given is functional, cell-based. The note with it: dose 15-20 µM.
The test system of data set [10] is HEK293-A. The experiment in a line: Inhibition of TNF-alpha induced MAPK activation in HEK293-A cells assessed as decrease in phosphorylated p38 expression at 15 to 120 uM incubated for 15 mins by Western blot analysis. The class given is cell-based. As to conditions: Homo sapiens, dose 15-120 µM.
The test system of data set [11] is HT-29. The experiment in a line: Antiinflammatory activity in human HT-29 cells assessed as downregulation of TNF-alpha-induced ICAM mRNA expression incubated for 6 hrs by RT-PCR analysis. The class given is functional, cell-based. The note with it: dose 15-20 µM.
Data set [12] has as its system L929. The experiment in a line: Cytotoxicity against TNF-alpha induced mouse L929 cells assessed as increase in cell survival pretreated for 12 hrs followed by TNF-alpha induction and measured after 18 to 20 hrs by MTT assay. Type of data set: toxicity, cell-based.
Data set [13] concerns the target T3, Tumor necrosis factor receptor superfamily member 1A (Homo sapiens, UniProt P19438).
T3 sequence (P19438 whole entry): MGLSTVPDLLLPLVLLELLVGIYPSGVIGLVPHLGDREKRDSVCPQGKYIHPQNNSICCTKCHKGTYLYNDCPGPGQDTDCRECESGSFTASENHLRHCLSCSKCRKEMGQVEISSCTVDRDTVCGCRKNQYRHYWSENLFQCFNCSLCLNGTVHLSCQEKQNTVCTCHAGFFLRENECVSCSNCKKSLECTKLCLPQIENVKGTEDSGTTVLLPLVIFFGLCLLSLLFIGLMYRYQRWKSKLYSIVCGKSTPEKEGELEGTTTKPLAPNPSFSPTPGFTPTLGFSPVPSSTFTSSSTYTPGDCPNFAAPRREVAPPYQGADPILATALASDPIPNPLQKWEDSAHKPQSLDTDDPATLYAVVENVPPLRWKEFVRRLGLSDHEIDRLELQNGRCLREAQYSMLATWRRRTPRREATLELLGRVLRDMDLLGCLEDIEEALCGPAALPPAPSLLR
Put plainly: Competitive Inhibition of TNF-alpha binding to human recombinant TNFR1 incubated for 1 hr by ELISA analysis.

Data set [14] deals with HEK293-A. Put plainly: Inhibition of TNF-alpha induced MAPK activation in HEK293-A cells assessed as decrease in phosphorylated ERK expression at 15 to 120 uM incubated for 15 mins by Western blot analysis. The class given is cell-based. As to conditions: Homo sapiens, dose 15-120 µM.
Data set [15] concerns HEK293-A. The experiment in a line: Inhibition of TNF-alpha induced MAPK activation in HEK293-A cells assessed as decrease in phosphorylated JNK expression at 15 to 120 uM incubated for 15 mins by Western blot analysis. The class given is cell-based. The note with it: Homo sapiens, dose 15-120 µM.
The target of data set [16] is Transcription factor p65 (Homo sapiens) (UniProt Q04206). Put plainly: Inhibition of TNF-alpha induced NF-kappaB p65 nuclear translocation in human HaCaT cells at 30 to 120 uM incubated for 10 mins DAPI staining based fluorescence microscopic analysis. As to conditions: dose 30-120 µM. Type of data set: cell-based.
Data set [17] addresses T1, Nuclear factor NF-kappa-B complex (Homo sapiens). Put plainly: Inhibition of TNF-alpha induced NF-kappaB activation in HEK293-A cells assessed as decrease in phosphorylated IkappaB level at 15 to 120 uM incubated for 15 mins by Western blot analysis. The class given is cell-based. As to conditions: dose 15-120 µM.
In data set [18] the test system is HT-29. The experiment in a line: Antiinflammatory activity in human HT-29 cells assessed as downregulation of TNF-alpha-induced IL-1beta mRNA expression incubated for 6 hrs by RT-PCR analysis. The class given is functional, cell-based. As to conditions: dose 15-20 µM.

Active and inactive are the calls of the source. The calls are words filed in the database; no cut-off is given here. Numbered stars: 1 amine (or outer) side, 2 acyl side, 3 side chain; on linkers, the order of the positions; unused ones are H or OH. Bridge positions count the residues as written; N and C are the ends. Square brackets hold non-standard residues; d marks the D form. Peptide text beside a SMILES is read from it. I, II: the chains in the order shown. Actinocin(9to1) = Cc1c2oc3c(C)ccc(C(=O)[*:1])c3nc-2c(C(=O)[*:2])c(N)c1=O; NMeV = CN[C@H](C(=O)O)C(C)C; Sar = CNCC(=O)O

T1 sequence (P19838 whole entry, looked up): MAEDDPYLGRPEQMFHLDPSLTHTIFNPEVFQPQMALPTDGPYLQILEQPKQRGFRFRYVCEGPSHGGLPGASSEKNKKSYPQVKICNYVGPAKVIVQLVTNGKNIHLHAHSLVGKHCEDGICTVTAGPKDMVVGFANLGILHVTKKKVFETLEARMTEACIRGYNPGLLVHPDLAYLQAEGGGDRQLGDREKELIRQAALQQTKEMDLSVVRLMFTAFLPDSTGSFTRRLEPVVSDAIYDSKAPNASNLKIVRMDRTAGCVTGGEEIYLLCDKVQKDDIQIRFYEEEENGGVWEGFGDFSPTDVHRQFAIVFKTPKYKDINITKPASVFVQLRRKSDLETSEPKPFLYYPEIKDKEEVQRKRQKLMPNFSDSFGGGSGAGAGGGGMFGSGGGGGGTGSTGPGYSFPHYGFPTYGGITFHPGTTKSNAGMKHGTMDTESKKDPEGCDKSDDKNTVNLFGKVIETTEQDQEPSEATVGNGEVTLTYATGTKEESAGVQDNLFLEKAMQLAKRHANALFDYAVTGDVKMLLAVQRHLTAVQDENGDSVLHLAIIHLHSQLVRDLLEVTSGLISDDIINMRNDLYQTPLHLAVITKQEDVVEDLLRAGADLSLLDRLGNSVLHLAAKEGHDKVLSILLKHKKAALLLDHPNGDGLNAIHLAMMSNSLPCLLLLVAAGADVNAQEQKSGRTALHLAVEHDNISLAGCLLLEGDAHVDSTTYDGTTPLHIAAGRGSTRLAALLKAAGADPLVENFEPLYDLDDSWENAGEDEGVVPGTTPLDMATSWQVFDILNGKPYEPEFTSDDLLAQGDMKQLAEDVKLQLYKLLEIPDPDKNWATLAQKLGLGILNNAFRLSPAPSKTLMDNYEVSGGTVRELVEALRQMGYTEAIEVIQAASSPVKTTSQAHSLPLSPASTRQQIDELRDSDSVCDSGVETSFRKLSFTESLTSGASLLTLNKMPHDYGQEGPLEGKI
T1 sequence (Q00653 whole entry, looked up): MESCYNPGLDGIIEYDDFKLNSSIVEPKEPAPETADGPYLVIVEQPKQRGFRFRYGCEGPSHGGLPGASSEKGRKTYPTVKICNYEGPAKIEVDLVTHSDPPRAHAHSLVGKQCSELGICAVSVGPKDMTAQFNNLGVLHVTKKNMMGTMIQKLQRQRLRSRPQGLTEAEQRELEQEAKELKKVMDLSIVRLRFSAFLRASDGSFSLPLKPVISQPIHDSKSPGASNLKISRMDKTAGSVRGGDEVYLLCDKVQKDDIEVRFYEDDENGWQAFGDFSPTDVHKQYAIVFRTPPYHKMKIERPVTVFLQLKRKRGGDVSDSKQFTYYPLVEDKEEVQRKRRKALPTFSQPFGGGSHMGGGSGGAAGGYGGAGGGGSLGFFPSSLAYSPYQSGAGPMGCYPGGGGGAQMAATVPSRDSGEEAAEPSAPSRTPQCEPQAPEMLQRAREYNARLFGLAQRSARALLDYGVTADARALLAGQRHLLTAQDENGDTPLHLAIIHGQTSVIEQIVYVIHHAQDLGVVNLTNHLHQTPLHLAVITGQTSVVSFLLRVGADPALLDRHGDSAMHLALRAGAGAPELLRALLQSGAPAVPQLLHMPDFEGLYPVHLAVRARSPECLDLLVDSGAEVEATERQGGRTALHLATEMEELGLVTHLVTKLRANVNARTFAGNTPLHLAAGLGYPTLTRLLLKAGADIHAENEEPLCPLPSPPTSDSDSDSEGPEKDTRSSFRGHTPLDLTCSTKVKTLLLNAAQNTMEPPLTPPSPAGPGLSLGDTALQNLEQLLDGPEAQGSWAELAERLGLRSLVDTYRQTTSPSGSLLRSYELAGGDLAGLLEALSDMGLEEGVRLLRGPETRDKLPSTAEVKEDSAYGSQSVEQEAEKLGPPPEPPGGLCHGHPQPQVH
T1 sequence (Q04206 whole entry, looked up): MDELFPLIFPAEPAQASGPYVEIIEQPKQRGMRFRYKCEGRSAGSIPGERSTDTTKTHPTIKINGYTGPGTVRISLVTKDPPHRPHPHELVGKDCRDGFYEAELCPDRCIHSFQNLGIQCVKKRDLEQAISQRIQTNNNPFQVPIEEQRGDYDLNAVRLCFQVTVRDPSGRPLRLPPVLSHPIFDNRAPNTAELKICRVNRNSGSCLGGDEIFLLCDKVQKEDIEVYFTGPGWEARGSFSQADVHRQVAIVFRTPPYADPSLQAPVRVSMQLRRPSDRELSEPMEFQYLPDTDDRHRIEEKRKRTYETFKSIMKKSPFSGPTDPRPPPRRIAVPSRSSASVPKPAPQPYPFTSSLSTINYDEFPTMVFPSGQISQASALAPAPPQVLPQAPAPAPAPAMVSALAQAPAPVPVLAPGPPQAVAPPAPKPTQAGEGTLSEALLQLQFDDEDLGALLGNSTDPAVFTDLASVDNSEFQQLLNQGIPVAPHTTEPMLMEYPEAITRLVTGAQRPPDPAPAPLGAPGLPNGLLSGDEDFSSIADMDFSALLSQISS
Transcription factor p65 (Homo sapiens), sequence (Q04206 whole entry): as the sequence (Q04206 whole entry, looked up) above

Consider `Cc1c2oc3c(C)ccc(C(=O)N[C@@H]4C(=O)N[C@H](C(C)C)C(=O)N5CCC[C@H]5C(=O)N(C)CC(=O)N(C)[C@@H](C(C)C)C(=O)O[C@@H]4C)c3nc-2c(C(=O)N[C@@H]2C(=O)N[C@H](C(C)C)C(=O)N3CCC[C@H]3C(=O)N(C)CC(=O)N(C)[C@@H](C(C)C)C(=O)O[C@@H]2C)c(N)c1=O` [DACTINOMYCIN] (I: T[dV]P[Sar][NMeV] / II: T[dV]P[Sar][NMeV]; ester I:1-I:C, II:1-II:C; linker I:N-II:N via Actinocin(9to1)), for which the Activity in data set [1] amounted to 70%.

Usually EC50 stands for the midpoint of the concentration-response curve. In general, IC50 refers to the point on the concentration scale where inhibition reaches its midpoint. For H-DEFHLELHLYQSW-OH, the inhibition entry is “Dose-Dependent Effect” in [2], “Tde” in data set [4], “Dose-Dependent Effect” in data set [5] and “Tde” in [7]. The inhibition entry in [3], in data set [10], in [14], in [15], in data set [16] and in [17] was “Active” each time. Also, the Activity result in [6], in data set [9], in data set [11] and in [18] was “Dose-Dependent Effect” in each case. Moreover, the figures for the EC50 in [8] and in [13] were 17 µM and 7.25 µM, respectively. Besides, the IC50 in data set [12] was 15.4 µM.
